Experiments:
CYP3A2 = test: Erythromycin demethylation (ED) in liver microsomes; assay type: in vivo, rat
Protocol: Sleep time was measured after i.p. injection of 50 mg/kg MZ (Hoffman-La Roche, Nutley, N.J.) at 0 (day 1), 24 (day 2) and 48 h (day 4). The volume of the injection was from 2.0 to 2.4 ml/rat. […] The rats were treated with 0.25, 0.50 or 1.00 mg antisense ODN i.p. immediately after the animal had regained its righting reflex determined at 0 and 24 h. Control rats received saline only. Total volume injection was 0.1 ml in saline.
Microsomes were prepared, as described by Franklin and Estabrook (cited above) for determination of enzyme level and activity.
Erythromycin demethylation (ED) was used a measure of CYP3A2 enzymatic activity (Gonzalez, Pharmacol. Rev. 40:243-87, 1989). Activity was recorded as micromoles of formaldehyde per milligram of protein per minute.

rat CYP3A2 = test: Midazolam sleep time in rats; assay type: in vivo; conditions: MZ 50 mg/kg i.p.
Protocol: Male Sprague-Dawley rats (Sasco, Omaha) weighing between 210 to 290 grams were used for all studies. The animals were exposed to 12 hour light/dark cycle and fed Purina rat chow and tap water ad libitum.
Sleep time was measured after i.p. injection of 50 mg/kg MZ (Hoffman-La Roche, Nutley, N.J.) at 0 (day 1), 24 (day 2) and […]. The volume of the injection was from 2.0 to 2.4 ml/rat. […] […] Control rats received saline only. Total volume injection was 0.1 ml in saline.

## AUGM:YC/PMO: PMO myc control, SEQ ID NO: 44, 5′-ACGUUGAGGGGCAUCGUCC-3′ (all phosphorodiamidate morpholino (PMO), T or U not given here)
CYP3A2; 100 μg/day i.p.
  ED (erythromycin demethylase activity): 110 μmol HCOH/mg/min
Rat CYP3A2; 100 μg/day i.p.
  MZ ST (midazolam sleep time): 20.6 ± 0.6 min

## REV3A2/PMO: PMO reverse control, SEQ ID NO: 43, 5′-UACCUCGACGAAAGUCGAGAGU-3′ (all phosphorodiamidate morpholino (PMO), T or U not given here)
CYP3A2; 100 μg/day i.p.
  ED (erythromycin demethylase activity): 99 μmol HCOH/mg/min
Rat CYP3A2; 100 μg/day i.p.
  MZ ST (midazolam sleep time): 20.3 ± 1.3 min

## ATGMYC/PS: PS DNA myc control, SEQ ID NO: 44, 5′-ACGTTGAGGGGCAUCGTCC-3′ (DNA, all phosphorothioate, T or U not given here)
CYP3A2; 1000 μg/day i.p.
  ED (erythromycin demethylase activity): 113 μmol HCOH/mg/min
Rat CYP3A2; 1000 μg/day i.p.
  MZ ST (midazolam sleep time): 22.8 ± 1.3 min

Reference: patent publication US6673778B1, “Enzyme inhibitors for metabolic redirection” (The Board of Regents of the University of Nebraska, priority 1996, dated 2004)
